System: ara-C metabolic pathway genes
Assay: Association of ara-C pathway SNP genotypes with MRD1, EFS and OS in AML02 (logistic regression and Cox models; also within LDAC and HDAC arms)
Design: species or system human
Details: within arm of AML02
Excerpt: Genomic DNA from patients enrolled in the multi-site St. Jude AML02 trial was genotyped for 155 SNPs in 16 genes of relevance to ara-C pharmacology using sequenom iPlex platform that uses MALDI-TOF based chemistry at University of Minnesota, Biomedical Genomics Center. SNPs were selected based on previously reported studies. For SNPs lacking literature on genetic variation, SNPs were selected to capture LD blocks (European and African ancestry) on a gene. Of 155 SNPs, 1 SNP was excluded due to low call rate (<90%), 47 SNPs were excluded due to minimum allele frequency of less than 5%, 11 SNPs were excluded due to high LD (r^2>0.9) with other SNPs; two SNPs were excluded because of deviation from Hardy-Weinberg equilibrium. Genotype for the COG-AAML0531 cohort for the selected SNPs was obtained using sequenom platform or TaqMan genotyping assays, and for a few SNPs was extracted from the data available on Illumina 2.5 Omni array. Genotype calls from multiple platforms were confirmed across multiple samples randomly collected from the cohort.
SNP genotype groups in three different modes of inheritance (additive, dominant, and recessive) were tested for association with MRD1 using logistic regression models. Odds ratio (OR) and 95% confidence interval (CI) were calculated for each test. SNPs with association P-value<0.05 were considered significant. Cox-proportional hazard models were used to evaluate association of genotype groups with EFS or OS. Hazard ratio (HR) and 95% CI were calculated for each test. p-value<0.05 was considered statistically significant. Given initial risk group assignments are well-established prognostic factors associated with outcome, outcome association analysis of SNPs with and without adjusting for risk group was also performed to identify SNPs that are associated with outcome independent of risk group.
SNPs with p<0.15 in risk-adjusted univariate evaluation with clinical endpoints (MRD1, EFS, and OS) were tested for all possible combinations with a maximum of three SNPs per model in multivariable logistic regression models for association with MRD1 and Cox-proportional hazard models for association with EFS and OS. Analysis for up to 3 SNP combinations was restricted due to computational challenges as increasing the maximum number of SNPs per model drastically increases the number of models as 1000 permutations were run for each model. Models were ordered according to their Bayesian Information Criterion (BIC) and weight in favor of each model. One thousand permutation tests were performed for each model to determine statistical significance. The six unique SNPs from the most significant models for EFS and MRD1 were included in the development of the ACS10 score as described in the results section.
The multicenter AML02 clinical trial randomly assigned subjects to receive low dose ara-C (LDAC: 100 mg/m^2; n=91 patients) or high dose ara-C(HDAC: 3 g/m^2; n=75 patients) in combination with daunorubicin and etoposide as the first course of chemotherapy as described above in patient cohort section. Thus, the association of SNPs with outcome within each arm separately was also explored (Table 5).

[1] = rs4742 (DCTD, WT T, VAR C), MOI R
[2] = rs5841 (NME4, WT C, VAR T), MOI D
[3] = rs324148 (SLC29A1, WT C, VAR T), MOI A
[4] = rs407983 (NME4, WT G, VAR C), MOI A
[5] = rs507964 (SLC29A1, WT C, VAR A), MOI R
[6] = rs580032 (CDA, WT T, VAR G), MOI D
[7] = rs602950 (CDA, WT T, VAR C), MOI A
[8] = rs747199 (SLC29A1, WT C, VAR G), MOI D
[9] = rs818196 (CDA, WT G, VAR C), MOI D
[10] = rs1048977 (CDA, WT C, VAR T), MOI D
[11] = rs1138729 (RRM2, WT A, VAR G), MOI D
[12] = rs2072671 (CDA, WT A, VAR C), MOI A
[13] = rs2396243 (SLC29A1, WT G, VAR A), MOI D
[14] = rs3088062 (CMPK1, WT T, VAR C), MOI A
[15] = rs3743162 (SLC28A1, WT C, VAR T), MOI D
[16] = rs3829540 (NME3, WT G, VAR A), MOI D
[17] = rs3925058 (CMPK1, WT T, VAR C), MOI D
[18] = rs4247411 (SLC28A1, WT C, VAR T), MOI D
[19] = rs4271567 (SLC28A1, WT T, VAR A), MOI R
[20] = rs4643786 (DCK, WT T, VAR C), MOI R

Nc1ccn([C@@H]2O[C@H](CO)[C@@H](O)[C@@H]2O)c(=O)n1 [LDAC, cytarabine]
EFS HR (95% CI) [1]: 1.49 (0.93-2.4)
MRD1 OR (95% CI) [1]: 1.19 (0.57-2.46)
OS HR (95% CI) [1]: 1.96 (1.2-3.21)
EFS HR (95% CI) [2]: 0.94 (0.68-1.31)
MRD1 OR (95% CI) [2]: 0.7 (0.45-1.08)
OS HR (95% CI) [2]: 0.86 (0.58-1.27)
EFS HR (95% CI) [3]: 1.35 (0.85-2.13)
MRD1 OR (95% CI) [3]: 0.37 (0.17-0.78)
OS HR (95% CI) [3]: 1.14 (0.64-2.04)
EFS HR (95% CI) [4]: 1.36 (0.88-2.09)
MRD1 OR (95% CI) [4]: 0.92 (0.53-1.59)
OS HR (95% CI) [4]: 1.73 (1-2.98)
EFS HR (95% CI) [5]: 1.54 (1.04-2.29)
MRD1 OR (95% CI) [5]: 1.41 (0.76-2.62)
OS HR (95% CI) [5]: 1.1 (0.64-1.88)
EFS HR (95% CI) [6]: 0.86 (0.51-1.44)
MRD1 OR (95% CI) [6]: 1.16 (0.63-2.13)
OS HR (95% CI) [6]: 1.12 (0.65-1.9)
EFS HR (95% CI) [7]: 0.56 (0.33-0.96)
MRD1 OR (95% CI) [7]: 0.57 (0.3-1.08)
OS HR (95% CI) [7]: 0.68 (0.36-1.26)
EFS HR (95% CI) [8]: 0.88 (0.61-1.28)
MRD1 OR (95% CI) [8]: 1.18 (0.75-1.88)
OS HR (95% CI) [8]: 0.55 (0.3-1)
EFS HR (95% CI) [9]: 1.18 (0.85-1.64)
MRD1 OR (95% CI) [9]: 1.28 (0.82-2)
OS HR (95% CI) [9]: 1.09 (0.73-1.62)
EFS HR (95% CI) [10]: 1.48 (1.06-2.08)
MRD1 OR (95% CI) [10]: 1.21 (0.79-1.85)
OS HR (95% CI) [10]: 1.14 (0.77-1.69)
EFS HR (95% CI) [11]: 1.55 (1.11-2.18)
MRD1 OR (95% CI) [11]: 1.19 (0.73-1.94)
OS HR (95% CI) [11]: 1.41 (0.93-2.14)
EFS HR (95% CI) [12]: 0.58 (0.35-0.95)
MRD1 OR (95% CI) [12]: 0.57 (0.31-1.04)
OS HR (95% CI) [12]: 0.68 (0.38-1.23)
EFS HR (95% CI) [13]: 1.56 (1.12-2.16)
MRD1 OR (95% CI) [13]: 0.92 (0.59-1.43)
OS HR (95% CI) [13]: 1.59 (1.07-2.36)
EFS HR (95% CI) [14]: 1.66 (0.99-2.8)
MRD1 OR (95% CI) [14]: 2.37 (1.06-5.28)
OS HR (95% CI) [14]: 1.63 (0.89-3.01)
EFS HR (95% CI) [15]: 0.82 (0.56-1.19)
MRD1 OR (95% CI) [15]: 0.77 (0.48-1.23)
OS HR (95% CI) [15]: 1.07 (0.71-1.64)
EFS HR (95% CI) [16]: 1.23 (0.89-1.71)
MRD1 OR (95% CI) [16]: 1.15 (0.73-1.8)
OS HR (95% CI) [16]: 1.22 (0.82-1.82)
EFS HR (95% CI) [17]: 0.7 (0.51-0.97)
MRD1 OR (95% CI) [17]: 0.6 (0.38-0.95)
OS HR (95% CI) [17]: 0.76 (0.51-1.13)
EFS HR (95% CI) [18]: 1.05 (0.73-1.51)
MRD1 OR (95% CI) [18]: 0.94 (0.59-1.51)
OS HR (95% CI) [18]: 1.03 (0.67-1.59)
EFS HR (95% CI) [19]: 1 (0.69-1.46)
MRD1 OR (95% CI) [19]: 0.76 (0.46-1.28)
OS HR (95% CI) [19]: 1.12 (0.72-1.74)
EFS HR (95% CI) [20]: 2.15 (1.28-3.64)
MRD1 OR (95% CI) [20]: 2.34 (0.76-7.15)
OS HR (95% CI) [20]: 1.7 (0.92-3.11)

— US20240344145A1, “PHARMACOGENOMICS SCORE TO MAKE DECISIONS ON THERAPY AUGMENTATION IN AML” (University of Florida Research Foundation, Incorporated, priority 2021, published 2024)
